# Laboratory results reported in patent US20250186391A1, “ORAL COMPLEMENT FACTOR D INHIBITORS” (BioCryst Pharmaceuticals, Inc., priority 2019, published 2025).
# Target: Factor D (Homo sapiens (Human), UniProt P00746)
# Test: Factor D esterolytic assay
# Format: biochemical
# Settings: Z-Lys-SBzl substrate, 100 mM HEPES, 500 mM NaCl, pH 7.5, 10% DMSO; tested a minimum of three times; read-out: Measured Ki (IC50) Value for Compounds: IC50
# Method: The IC50 value of a compound (i.e., the concentration of the compound that inhibits 50% of the enzymatic activity) was calculated according to the procedure reported in U.S. Pat. No. 6,653,340 B1, e.g., column 74 (incorporated by reference).
# Specifically, the compounds were dissolved in a stock solution of DMSO at 10.0 or 100 mM. A portion of this stock solution was added to assay buffer in a final volume of 50 μL. Controls included buffer alone and enzyme solutions to which DMSO was added. Substrate was added to the reaction wells immediately or after incubation at room temperature. The reaction rates were measured spectrophotometrically by the generation of product at 405 nm for 600 sec. Background absorbance at 690 nm was measured and subtracted from the absorbance at 405 nm for each well.
# The reaction rate for enzyme alone was compared to the rate of enzyme in the presence of inhibitor and the percent inhibition was calculated as shown below: […]
# An established esterolytic assay for the measurement of Factor D activity and inhibition of Factor D activity was used (Kam, C. M.; McRae, B. J.; Harper, J. W.; Niemann, M. A.; Volanakis, J. E.; Powers, J. C. Human complement proteins D, C2, and B Active site mapping with peptide thioester substrates. J Biol. Chem. 1987, 262, 3444-3451). For this assay Z-Lys-SBzl, 1.29 mM (Kim, S.; Narayana, S. V. L; Volanakis, J. E. Mutational analysis of the substrate binding site of human complement Factor D. Biochemistry. 1994, 33, 14393-14399.) was used as the substrate for Factor D ([…]). Hydrolysis of this compound by Factor D liberated a free sulfhydryl group which is then reacted with 5,5′-dithiobis(2nitrobenzoic acid) producing an intense yellow color (Habeeb, A. F. S. A. Reaction of protein sulfhydryl groups with Ellman's Reagent. Methods in Enzymol. 1976, 25, 457-464.). The assays were performed in 96 well microtiter plates and rates of hydrolysis were monitored at 405 nm on a Biotek Synergy H1 plate reader. Hydrolysis rates were reported as change in mOD/min. The assay was conducted in 100 mM HEPES, 500 mM NaCl, pH 7.5 containing 10% DMSO in a final volume of 50 μL per well.
# An IC50, a compound concentration which inhibits 50% of the enzymatic activity, was calculated. Compounds in the examples were tested a minimum of three times.
# Factor D, sequence (P00746 26-253): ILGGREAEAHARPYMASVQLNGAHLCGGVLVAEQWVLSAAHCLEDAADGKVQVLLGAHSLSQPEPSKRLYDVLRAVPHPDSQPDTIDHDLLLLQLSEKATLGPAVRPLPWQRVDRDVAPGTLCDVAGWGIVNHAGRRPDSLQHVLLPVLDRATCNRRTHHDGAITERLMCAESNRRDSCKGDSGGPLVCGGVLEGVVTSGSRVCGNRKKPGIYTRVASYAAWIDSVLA
row,SMILES,IC50 [µM]
1,"COc1ccc(CC(=O)O)c(OCc2c(C)oc3ccc(-c4ccnc(CN)c4)cc23)c1 [Compound 203d, 2-(2-((5-(2-(aminomethyl)pyridin-4-yl)-2-methylbenzofuran-3-yl)methoxy)-4-methoxyphenyl)acetic acid]",< 1
2,"COc1ccc(CC(=O)O)c(OCc2nn(C)c3ccc(-c4cccc(CN)c4F)cc23)c1 [Compound 309b, 2-(2-((5-(3-(aminomethyl)-2-fluorophenyl)-1-methyl-1H-indazol-3-yl)methoxy)-4-methoxyphenyl)acetic acid]",< 1
3,"NCc1cccc(-c2cc(CC3CCOCC3)c3occ(COc4ccccc4CC(=O)O)c3c2)c1 [Compound 163e, 2-(2-((5-(3-(aminomethyl)phenyl)-7-((tetrahydro-2H-pyran-4-yl)methyl)benzofuran-3-yl)methoxy)phenyl)acetic acid]",< 1
4,"CC(C)n1nc(COc2ccccc2CC(=O)O)c2cc(-c3ccc(O)c(CN)c3)ccc21 [Compound 317d, 2-(2-((5-(3-(aminomethyl)-4-hydroxyphenyl)-1-isopropyl-1H-indazol-3-yl)methoxy)phenyl)acetic acid]",1 to 10
5,"NCc1cccc(-c2cc(CO)cc3cc(COc4ccccc4CC(=O)O)oc23)c1 [Compound 29b, 2-(2-((7-(3-(aminomethyl)phenyl)-5-(hydroxymethyl)benzofuran-2-yl)methoxy)phenyl)acetic acid]",< 1
6,"CC(C)(C)OC(=O)Nc1ccc(CC(=O)O)c(OCc2coc3ccc(-c4cccc(CN)c4)cc23)c1 [Compound 83h, 2-(2-((5-(3-(aminomethyl)phenyl)benzofuran-3-yl)methoxy)-4-((tert-butoxycarbonyl)amino)phenyl)acetic acid]",< 1
7,"NCc1cc(-c2cc3c(COc4ccccc4CC(=O)O)coc3c3ccoc23)ccn1 [Compound 288d, 2-(2-((5-(2-(aminomethyl)pyridin-4-yl)benzo[1,2-b:3,4-b′]difuran-3-yl)methoxy)phenyl)acetic acid]",< 1
8,"COc1ccc(CC(=O)O)c(OCc2c(C)oc3ccc(-c4cccc([C@H](C)N)c4)cc23)c1 [Compound 240b, (S)-2-(2-((5-(3-(1-aminoethyl)phenyl)-2-methylbenzofuran-3-yl)methoxy)-4-methoxyphenyl)acetic acid]",< 1
9,"NCc1cccc(-c2cccc3cc(COc4ccccc4CC(=O)O)ccc23)c1 [Compound 41d, 2-(2-((5-(3-(aminomethyl)phenyl)naphthalen-2-yl)methoxy)phenyl)acetic acid]",> 10
10,"COc1ccc(CC(=O)O)c(OCc2c(C)oc3ccc(-c4cc(F)cc(CN)c4)cc23)c1 [Compound 239c, 2-(2-((5-(3-(aminomethyl)-5-fluorophenyl)-2-methylbenzofuran-3-yl)methoxy)-4-methoxyphenyl)acetic acid]",< 1
11,"NCc1cccc(-c2cccc3cc(COc4ccccc4CC(=O)O)sc23)c1 [Compound 30d, 2-(2-((7-(3-(aminomethyl)phenyl)benzo[b]thiophen-2-yl)methoxy)phenyl)acetic acid]",< 1
12,"CC(C)n1nc(COc2ccccc2C(=O)O)c2cc(-c3cccc(CN)c3)ccc21 [Compound 299d, 2-((5-(3-(aminomethyl)phenyl)-1-isopropyl-1H-indazol-3-yl)methoxy)benzoic acid]",< 1
13,"CCc1ccc(CC(=O)O)c(OCc2coc3ccc(-c4cccc(CN)c4)cc23)c1 [Compound 49b, 2-(2-((5-(3-(aminomethyl)phenyl)benzofuran-3-yl)methoxy)-4-ethylphenyl)acetic acid]",< 1
14,"COc1ccc(CC(=O)O)c(OCc2coc3c(C)cc(-c4cccc(CN)c4)cc23)c1 [Compound 253c, 2-(2-((5-(3-(aminomethyl)phenyl)-7-methylbenzofuran-3-yl)methoxy)-4-methoxyphenyl)acetic acid]",< 1
15,"COc1ccc(CC(=O)O)c(OCc2c(C(C)(C)C)oc3ccc(-c4cccc(CN)c4)cc23)c1 [Compound 174c, 2-(2-((5-(3-(aminomethyl)phenyl)-2-(tert-butyl)benzofuran-3-yl)methoxy)-4-methoxyphenyl)acetic acid]",< 1
16,"NCc1cccc(-c2ccc3occ(COc4cc(C(F)(F)F)ccc4CC(=O)O)c3c2)c1 [Compound 118d, 2-(2-((5-(3-(aminomethyl)phenyl)benzofuran-3-yl)methoxy)-4-(trifluoromethyl)phenyl)acetic acid]",< 1

row,SMILES,IC50 [µM]
1,"NCc1cccc(-c2ccc3c(COc4ccccc4CC(=O)O)coc3c2)c1F [Compound 95b, 2-(2-((6-(3-(aminomethyl)-2-fluorophenyl)benzofuran-3-yl)methoxy)phenyl)acetic acid]",> 10
2,"NCc1cccc(-c2ccc3occ(COc4ccc(F)cc4CC(=O)O)c3c2)c1 [Compound 5d, 2-(2-((5-(3-(aminomethyl)phenyl)benzofuran-3-yl)methoxy)-5-fluorophenyl)acetic acid]",< 1
3,"COc1ccc(CC(=O)O)c(OCc2c3cc(-c4cccc(CN)c4)ccc3nn2C(C)C)c1 [Compound 255c, 2-(2-((5-(3-(aminomethyl)phenyl)-2-isopropyl-2H-indazol-3-yl)methoxy)-4-methoxyphenyl)acetic acid]",< 1
4,"NCc1cccc(-c2cc(COc3ccccc3)cc3cc(COc4ccccc4CC(=O)O)oc23)c1 [Compound 33f, 2-(2-((7-(3-(aminomethyl)phenyl)-5-(phenoxymethyl)benzofuran-2-yl)methoxy)phenyl)acetic acid]",< 1
5,"NCc1cccc(-c2cc(C(F)(F)F)c3occ(COc4ccccc4CC(=O)O)c3c2)c1 [Compound 113g, 2-(2-((5-(3-(aminomethyl)phenyl)-7-(trifluoromethyl)benzofuran-3-yl)methoxy)phenyl)acetic acid]",< 1
6,"CC(C)n1nc(COc2cccc(CC(=O)O)c2)c2cc(-c3cccc(CN)c3)ccc21 [Compound 304c, 2-(3-((5-(3-(aminomethyl)phenyl)-1-isopropyl-1H-indazol-3-yl)methoxy)phenyl)acetic acid]",> 10
7,"COc1ccc(CC(=O)O)c(OCc2c(C)oc3ccc(-c4ccnc(CN)c4F)cc23)c1 [Compound 281d, 2-(2-((5-(2-(aminomethyl)-3-fluoropyridin-4-yl)-2-methylbenzofuran-3-yl)methoxy)-4-methoxyphenyl)acetic acid]",< 1
8,"CCOC(=O)Nc1cc(-c2cccc(CN)c2)cc2c(COc3ccccc3CC(=O)O)c(C(=O)O)oc12 [Compound 102c, 5-(3-(aminomethyl)phenyl)-3-((2-(carboxymethyl)phenoxy)methyl)-7-((ethoxycarbonyl)amino)benzofuran-2-carboxylic acid]",< 1
9,"CCCc1oc2ccc(-c3cccc(CN)c3)cc2c1COc1cc(C)ccc1CC(=O)O [Compound 285c, 2-(2-((5-(3-(aminomethyl)phenyl)-2-propylbenzofuran-3-yl)methoxy)-4-methylphenyl)acetic acid]",< 1
10,"NCc1cccc(-c2cc(COc3ccccc3CCC(=O)O)cc3cc(COc4ccccc4CC(=O)O)oc23)c1 [Compound 15e, 3-(2-((7-(3-(aminomethyl)phenyl)-2-((2-(carboxymethyl)phenoxy)methyl)benzofuran-5-yl)methoxy)phenyl)propanoic acid]",< 1
11,"NCc1cccc(-c2cc(Cl)cc3c(COc4ccccc4CC(=O)O)coc23)c1 [Compound 193b, 2-(2-((7-(3-(aminomethyl)phenyl)-5-chlorobenzofuran-3-yl)methoxy)phenyl)acetic acid]",1 to 10
12,"NCc1cccc(-c2cc(-c3c[nH]c4ccccc34)c3occ(COc4ccccc4CC(=O)O)c3c2)c1 [Compound 136d, 2-(2-((5-(3-(aminomethyl)phenyl)-7-(1H-indol-3-yl)benzofuran-3-yl)methoxy)phenyl)acetic acid]",< 1
13,"Cc1c(CN)cccc1-c1ccc2c(c1)c(COc1ccccc1CC(=O)O)nn2C(C)C [Compound 330c, 2-(2-((5-(3-(aminomethyl)-2-methylphenyl)-1-isopropyl-1H-indazol-3-yl)methoxy)phenyl)acetic acid]",< 1
14,"Cc1cc2c(o1)c(-c1cccc(CN)c1)cc1c(COc3ccccc3CC(=O)O)coc12 [Compound 283g, 2-(2-((5-(3-(aminomethyl)phenyl)-7-methylbenzo[1,2-b:3,4-b′]difuran-3-yl)methoxy)phenyl)acetic acid]",< 1
15,"CCNc1cc(-c2cccc(CN)c2)cc2c(COc3ccccc3CC(=O)O)coc12 [Compound 150d, 2-(2-((5-(3-(aminomethyl)phenyl)-7-(ethylamino)benzofuran-3-yl)methoxy)phenyl)acetic acid]",< 1
